Results from article PMC8599513, “Efficient biosynthesis of nucleoside cytokinin angustmycin A containing an unusual sugar system” (Nature Communications, 2021).

Tests used:
AgmA = biological target: T1, AgmA (Streptomyces angustmyceticus, UniProt A0A5J4L869); test: HPLC and LC-MS, adenine release; assay type: biochemical; conditions: 50 mM Tris-Cl pH 7.5, 1 mM substrate, 30 °C, 2 h
T1 construct: gene San01_08890; recombinant, overexpressed in and purified from E. coli BL21(DE3)
T1 sequence (A0A5J4L869 1-193): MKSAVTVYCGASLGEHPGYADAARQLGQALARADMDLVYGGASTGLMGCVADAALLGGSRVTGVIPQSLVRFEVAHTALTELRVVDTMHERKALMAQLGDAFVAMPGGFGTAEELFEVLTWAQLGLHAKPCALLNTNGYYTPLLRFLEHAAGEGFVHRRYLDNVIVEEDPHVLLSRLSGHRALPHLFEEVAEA

AgmE = biological target: T2, AgmE (Streptomyces angustmyceticus, UniProt A0A5J4LCM7); test: HPLC and LC-MS, AMP formation; assay type: biochemical; conditions: 1 mM Mg2+, 50 mM PBS pH 7.5, 30 °C
T2 construct: gene San01_08850; recombinant, overexpressed in and purified from E. coli BL21(DE3)
T2 sequence (A0A5J4LCM7 1-178): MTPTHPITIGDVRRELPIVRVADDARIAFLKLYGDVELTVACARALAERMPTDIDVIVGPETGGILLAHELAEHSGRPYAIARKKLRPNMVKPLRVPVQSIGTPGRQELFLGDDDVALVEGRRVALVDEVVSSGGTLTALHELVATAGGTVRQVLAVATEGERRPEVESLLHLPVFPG

AgmF = system: T3, AgmF; test: HPLC dehydration assay; assay type: biochemical, Streptomyces angustmyceticus; conditions: dehydration to angustmycin A; kinetic assay conditions only in supplement
T3 construct: recombinant, overexpressed in and purified from E. coli BL21(DE3)

Nc1ncnc2c1ncn2[C@@H]1O[C@H](COP(=O)(O)O)[C@@H](O)[C@H]1O [AMP]
HPLC and LC-MS, adenine release (AgmA): AgmA is capable of consuming AMP/dAMP as a substrate

O=P(O)(O)OC[C@H]1O[C@H](OP(=O)(O)OP(=O)(O)O)[C@H](O)[C@@H]1O [PRPP]
HPLC and LC-MS, AMP formation (AgmE; co-substrate adenine): assayed in vitro with the substrates adenine and phosphoribosyl pyrophosphate (PRPP)

Nc1ncnc2[nH]cnc12 [adenine]
HPLC and LC-MS, AMP formation (AgmE; co-substrate PRPP 1 mM, methods print adenosine instead of adenine): assayed in vitro with the substrates adenine and phosphoribosyl pyrophosphate (PRPP)

Nc1ncnc2c1ncn2[C@]1(CO)O[C@H](CO)[C@@H](O)[C@H]1O [compound 2, angustmycin C]
Km (AgmF): 1380 ± 121 µM

Nc1ncnc2c1ncn2[C@H]1C[C@H](O)[C@@H](COP(=O)(O)O)O1 [dAMP]
HPLC and LC-MS, adenine release (AgmA): AgmA is capable of consuming AMP/dAMP as a substrate
